According to patent EP2785358B1, “INSULIN-MIMETICS AS THERAPEUTIC ADJUNCTS FOR BONE REGENERATION” (priority 2011, dated 2013):
Several values for one entry are separate records, joined by “and”; a condition that tells them apart may be missing. Equal entries are not always repeated. Where two headings read alike, the source gives them in different places. Marks after values point to notes of the source that are not given here.

Legend:
femur fractures [1] = conditions: zinc chloride 3.0 mg/kg
Text: The fractured femora were resected at seven days post-fracture, decalcified, dehydrated, embedded in paraffin, and sectioned using standard histological techniques. Sections were stained with Masson's Trichrome (Accustain™ Trichrome Staining kit, Sigma Diagnostics, St. Louis, MO) for histological observation using an Olympus BH2-RFCA microscope (Olympus Optical Co., Ltd., Shinjuku-ku, Tokyo, Japan). Digital images were collected using a Nikon DXM1200F digital camera (Nikon, Tokyo, Japan). Cartilage, new bone, and total callus area were measured from the digital images using Image-Pro Plus software (version 5, Media Cybernetics, Inc., Silver Spring, MD). Total cartilage and new bone area were normalized to total callus area and expressed as the percent area. Two independent reviewers were used to minimize inconsistencies.
This includes dehydration, soaking in Xylenes, and finally pre-embedding in a layer of Polymethylmethacrylate (PMMA). After embedding in pure PMMA and allowed to solidify in a hot water bath, slides were sectioned from the PMMA blocks, polished, and stained with a combination of Stevenel's blue and Van Gieson picro-fuchsin (SVG). Histological images of fracture calluses were obtained using an Olympus SZX12 upright microscope (Olympus Optical Co, LTD, Japan) connected via a CCD camera (Optronics, Goleta, California) to a personal computer and analyzed with the Bioquant software package (Biometrics, Inc, Nashville, TN). Parameters that were compared include a) callus area, b) percent calcified tissue area, and c) percent cartilage area. Limitations of this procedure include production of slides with high thicknesses, due to the difficulties associated with sectioning PMMA. This limits the number of possible sections that may be cut for staining in addition to analysis of cellular morphology, due to overlapping layers of cells.

femur fractures [2] = system: femur fractures; parameters: Percent Effective Shear Modulus / Percent Effective Shear Stress: scale not given: direction of the effect not stated beside the values; conditions: for Effective Shear Modulus / Effective Shear Stress / Maximum Torque to Failure / Maximum Torsional Rigidity / Percent Effective Shear Modulus / Percent Effective Shear Stress / Percent Maximum Torque to Failure / Percent maximum torsional rigidity: no carrier, 4 weeks post-fracture; for effective shear stress, times higher than control: four weeks post-fracture
Description: Zinc Chloride [(ZnCl2), Sigma Aldrich, St. Louis, MO] mixed with a buffer was injected into the intramedullary canal prior to fracture. The buffer consisted of sodium acetate, sodium chloride methyl hydroxybenzoate, and zinc chloride. Doses of 1.0 mg/kg and 3.0 mg/kg zinc chloride were tested and administered at a volume of 0.1mL.
Fractured and contralateral femora were resected at three and four weeks post-fracture. Femora were cleaned of soft tissue and the intramedullary rod was removed. Samples were wrapped in saline (0.9% NaCl) soaked gauze and stored at -20 °C. Prior to testing, all femora were removed from the freezer and allowed to thaw to room temperature for three to four hours. The proximal and distal ends of the fractured and contralateral femora were embedded in ¾ inch square nuts with Field's Metal, leaving an approximate gauge length of 18 mm (Figure 2). After measuring callus, gauge length and femur dimensions, torsional testing was conducted using a servohydraulics machine (MTS Systems Corp., Eden Prairie, MN) with a 20 Nmm reaction torque cell (Interface, Scottsdale, AZ) and tested to failure at a rate of 2.0 deg/sec. The maximum torque to failure and angle to failure were determined from the force to angular displacement data.
Maximum torque to failure and maximum torsional rigidity are considered extrinsic properties while shear modulus and maximum shear stress are considered intrinsic properties. […] Maximum torsional rigidity is a function of the maximum torque to failure, gauge length (distance of the exposed femur between the embedded proximal and distal end) and angular displacement. Maximum shear stress is a function of the maximum torque to failure, maximum radius within the mid-diaphyseal region and the polar moment of inertia. The polar moment of inertia was calculated by modeling the femur as a hollow ellipse.
In order to compare the biomechanical parameters between different treatment groups, the data was normalized by dividing each fractured femur value by its corresponding intact, contralateral femur value (Figure 2). Normalization was used to minimize biological variability due to differences in age and weight among rats.
Zinc chloride (ZnCl2), Sigma Aldrich, St. Louis, MO, mixed with sterile water at various doses with or without a calcium sulfate carrier, were injected into the intramedullary canal prior to fracture. Doses of ZnCl2 were not based on each animal's body weight, but on a lower theoretically tolerable dose for a 290-gram BB Wistar rat, which would not elicit heavy metal poisoning or behavioral changes. This weight is over 50 grams lower than the average weight of non-diabetic BB Wistar rats at an age of approximately 90 days (the age of investigation in this study).

femur fractures [3] = conditions: no carrier
Description: Under the same anesthesia as described above, the rats were positioned prone and lateral and anteroposterior (AP) radiographs of their femurs were obtained. […] Exposures were for 30 seconds at 55 kVp. Magnified radiographs were obtained of resected femurs. Qualitative analysis was performed on all radiographic sample at four weeks post-fracture. […] Treatment group averages were computed to estimate healing at 4 weeks post-fracture.

[4] = rat, in vivo
Description: Doses of ZnCl2 were not based on each animal's body weight, but on a lower theoretically tolerable dose for a 290-gram BB Wistar rat, which would not elicit heavy metal poisoning or behavioral changes. […] A 0.1 ml volume of the ZnCl2 solution was administered locally via a single injection into the marrow space for each dose examined.
However, animals amongst treatment groups were age and sex matched for each experiment.

[5] = ZnCl2 0.1 mg/kg local, normalized to intact femur
[6] = ZnCl2 1.0 mg/kg local, normalized to intact femur
[7] = ZnCl2 3.0 mg/kg local, normalized to intact femur, 3 mg/kg
[8] = ZnCl2 3 mg/kg, four weeks, normalized to intact femur, 3 mg/kg
[9] = ZnCl2 6.0 mg/kg local, normalized to intact femur
[10] = ZnCl2 10.0 mg/kg local, normalized to intact femur

With `[Cl-].[Cl-].[Zn+2]` [ZnCl2, Zinc Chloride] the “% Bone” value (femur fractures [1]; 7 Day) was 18.92 ± 5.97 ^∗ %, the “% Cartilage” value (femur fractures [1]; 7 Day) was 4.64 ± 3.41% and the “% Bone” value (femur fractures [1]; 10 Day) was 21.31 ± 5.40%. The “% Cartilage” value (femur fractures [1]; 10 Day) was 12.79 ± 3.02%, the “% Bone” value (femur fractures [1]; 21 Day) was 24.47 ± 3.53% and the “% Cartilage” value (femur fractures [1]; 21 Day) was 11.57 ± 5.53%. For the same molecule, the “Effective Shear Modulus” value (femur fractures [2]; ZnCl2 0.1 mg/kg local) was 1.7×10^3 ± 3.3×10^2 MPa, the “Effective Shear Stress” value (femur fractures [2]; ZnCl2 0.1 mg/kg local) was 61 ± 14 MPa and the “Maximum Torque to Failure” value (femur fractures [2]; ZnCl2 0.1 mg/kg local) was 252 ± 13 Nmm. The “Maximum Torsional Rigidity” value (femur fractures [2]; ZnCl2 0.1 mg/kg local) was 2.1×10^4 ± 4.2×10^3 Nmm^2/rad, the “Percent Effective Shear Modulus” value (femur fractures [2]; [5]) was 34 ± 4% and the “Percent Effective Shear Stress” value (femur fractures [2]; [5]) was 33 ± 14%. The “Percent Maximum Torque to Failure” value (femur fractures [2]; [5]) was 57 ± 12%, the “Percent maximum torsional rigidity” value (femur fractures [2]; [5]) was 87 ± 14% and the “Effective Shear Modulus” value (femur fractures [2]; ZnCl2 1.0 mg/kg local) was 9.7×10^2 ± 3.6×10^2 MPa. The “Effective Shear Stress” value (femur fractures [2]; ZnCl2 1.0 mg/kg local) was 44 ± 15 MPa, the “Maximum Torque to Failure” value (femur fractures [2]; ZnCl2 1.0 mg/kg local) was 281 ± 86 Nmm and the “Maximum Torsional Rigidity” value (femur fractures [2]; ZnCl2 1.0 mg/kg local) was 2.2×10^4 ± 2.7×10^3 Nmm^2/rad. For the same molecule, the “Percent Effective Shear Modulus” value (femur fractures [2]; [6]) was 32 ± 15%, the “Percent Effective Shear Stress” value (femur fractures [2]; [6]) was 18 ± 8% and the “Percent Maximum Torque to Failure” value (femur fractures [2]; [6]) was 65 ± 29%. For the same molecule, the “Percent maximum torsional rigidity” value (femur fractures [2]; [6]) was 55 ± 14%, the “effective shear stress, times higher than control” value (femur fractures [2]; ZnCl2 1.0 mg/kg) was 1.6 x and the “Effective Shear Modulus” value (femur fractures [2]; ZnCl2 3.0 mg/kg local) was 1.3×10^3 ± 6.4×10^2 MPa. The “Effective Shear Stress” value (femur fractures [2]; ZnCl2 3.0 mg/kg local) was 55 ± 21^∗ MPa, the “Maximum Torque to Failure” value (femur fractures [2]; ZnCl2 3.0 mg/kg local) was 369 ± 74 Nmm and the “Maximum Torsional Rigidity” value (femur fractures [2]; ZnCl2 3.0 mg/kg local) was 3.1×10^4 ± 1.1×10^4 Nmm^2/rad. For the same molecule, the “Percent Effective Shear Stress” value (femur fractures [2]; ZnCl2 3.0 mg/kg local, normalized to intact femur) was 27 ± 17%, the “Percent Effective Shear Modulus” value (femur fractures [2]; [7]) was 39.0% and 36 ± 10^∗ Percent and the “Percent Maximum Torque to Failure” value (femur fractures [2]; [7]) was 82.0% and 82 ± 25^∗ Percent. The “Percent maximum torsional rigidity” value (femur fractures [2]; [7]) was 97.0% and 97 ± 55^∗ Percent, the “effective shear stress, times higher than control” value (femur fractures [2]; ZnCl2 3.0 mg/kg) was 2.2 x and the “percent effective shear modulus, times higher than control group” value (femur fractures [2]; [8]) was 9.0 x and 8.0 x. For the same molecule, the “percent maximum torque to failure, times higher than control group” value (femur fractures [2]; [8]) was 2.04 x and 2.0 x, the “percent torsional rigidity, times higher than control group” value (femur fractures [2]; [8]) was 3.85 x and 3.8 x and the “Effective Shear Modulus” value (femur fractures [2]; ZnCl2 6.0 mg/kg local) was 1.1×10^3 ± 7.5×10^2 MPa. The “Effective Shear Stress” value (femur fractures [2]; ZnCl2 6.0 mg/kg local) was 32 ± 25^∗ MPa, the “Maximum Torque to Failure” value (femur fractures [2]; ZnCl2 6.0 mg/kg local) was 276 ± 190 Nmm and the “Maximum Torsional Rigidity” value (femur fractures [2]; ZnCl2 6.0 mg/kg local) was 2.9×10^4 ± 1.6×10^4 Nmm^2/rad. The “Percent Effective Shear Modulus” value (femur fractures [2]; [9]) was 18 ± 12%, the “Percent Effective Shear Stress” value (femur fractures [2]; [9]) was 15 ± 10% and the “Percent Maximum Torque to Failure” value (femur fractures [2]; [9]) was 38 ± 20%. The “Percent maximum torsional rigidity” value (femur fractures [2]; [9]) was 62 ± 35%, the “Percent shear modulus, times greater than untreated saline group” value (femur fractures [2]; ZnCl2 10.0 mg/kg (high dose), four weeks, normalized to intact femur) was 8.8 times and the “Effective Shear Modulus” value (femur fractures [2]; ZnCl2 10.0 mg/kg local) was 3.0×10^3 ± 1.9×10^3∗ MPa. The “Effective Shear Stress” value (femur fractures [2]; ZnCl2 10.0 mg/kg local) was 62 ± 30 MPa, the “Maximum Torque to Failure” value (femur fractures [2]; ZnCl2 10.0 mg/kg local) was 254 ± 36 Nmm and the “Maximum Torsional Rigidity” value (femur fractures [2]; ZnCl2 10.0 mg/kg local) was 3.6×10^4 ± 2.5×10^4 Nmm^2/rad. For the same molecule, the “Percent Effective Shear Stress” value (femur fractures [2]; [10]) was 27 ±11%, the “Percent Maximum Torque to Failure” value (femur fractures [2]; [10]) was 41 ± 8% and the “Percent maximum torsional rigidity” value (femur fractures [2]; [10]) was 73 ± 44%. The “Percent Effective Shear Modulus” value (femur fractures [2]; ZnCl2 10.0 mg/kg local, normalized to intact femur, 10 mg/kg) was 36.0% and 39 ± 23^∗ Percent, the “time in which fracture healing resolved” value (femur fractures [2]; ZnCl2 applied directly to the fracture site, instead of average eight to ten weeks in standard rat femur fracture model) was “four to five weeks” and the “Radiographic scoring, 4 Weeks Post-Fracture (# of cortices bridged)” value (femur fractures [3]; ZnCl2 1.0 mg/kg local) was 3.0 ± 0.6 (n=3). For the same molecule, the “Radiographic scoring, 4 Weeks Post-Fracture (# of cortices bridged)” value (femur fractures [3]; ZnCl2 3.0 mg/kg local) was 3.3 ± 0.6^∗ (n=3), the “% Weight gain” value ([4]; 0.1 mg/kg) was 15.3±11.5% and the “Blood Glucose 12 Hours Post-Surgery” value ([4]; 0.1 mg/kg) was 87.0±7.1 ^a mg/dl. For the same molecule, the “% Weight gain” value ([4]; 1 mg/kg) was 11.0±9.4%, the “Blood Glucose 12 Hours Post-Surgery” value ([4]; 1 mg/kg) was 99.3±3.1 ^b mg/dl and the “% Weight gain” value ([4]; 3 mg/kg) was 6.9±11.7%. The “Blood Glucose 12 Hours Post-Surgery” value ([4]; 3 mg/kg) was 105.0±4.4 ^b mg/dl, the “% Weight gain” value ([4]; 6 mg/kg) was 4.6±2.3% and the “Blood Glucose 12 Hours Post-Surgery” value ([4]; 6 mg/kg) was 88.0±4.3 ^a mg/dl. The “% Weight gain” value ([4]; 10 mg/kg) was 4.2±2.0% and the “Blood Glucose 12 Hours Post-Surgery” value ([4]; 10 mg/kg) was 87. 7±8. 5 ^a mg/dl.
